Laboratory results published in paper PMC7381750, “JP1 suppresses proliferation and metastasis of melanoma through MEK1/2 mediated NEDD4L-SP1-Integrin αvβ3 signaling” (Theranostics, 2020).
Values joined by “and” are separate entries in the source; they are usually repeats but may differ in a detail not shown here. Equal values may be shown once. Non-standard residues stand in square brackets, D forms with d. Residues, ends and D or L forms follow the SMILES beside them. pS = N[C@@H](COP(=O)(O)O)C(=O)O

Legend:
[1] = Cynomolgus monkey toxicity test: blood routine examination; format: in vivo
Experimental: (§1) The test was completed by Suzhou Xishan Zhongke Drugs Research and Development Co., Ltd. (Xishan, Suzhou, China). The study proposal was approved by the Institute Animal Care and Use Committee (IACUC, ID19012912). Cynomolgus monkeys (3-4 years old) were randomly divided into three groups (n = 4 per group, half male and female); and the monkeys were treated with solvent control (Mannitol in saline, 75 mg/kg/d), JP1 (45 mg/kg/day) and JP1 (150 mg/kg/day) for 14 days. The experiment was ended on 15th day and the animals were euthanasia. The relevant clinical parameters were determined on 7th and 13th day, respectively. The observed parameters were including clinical symptoms, weight, food intake, body temperature, ophthalmology, electrocardiogram, blood routine examination, blood biochemistry, blood coagulation, urinalysis, immunotoxicity.
(§2) Supplementary database files: Cynomolgus monkey toxicity test […]
(§3) The study was conducted by a contract service in Suzhou Xishan Zhongke Drugs Research and Development Co., Ltd. (Xishan, Suzhou, China). All the use of animals were approved by the Institute Animal Care and Use Commttee, IACUC. IACUC no. :
(§4) ID19012912. The veterinarian will supervise the breeding and welfare of the animals. The company follows the Guide for the Care and Use of Laboratory Animals (8th ed., 2011).
(§5) Cynomolgus monkeys (3-4 years old) were randomly divided into three groups (n = 4 per group, two males and two females for each group); and treated q.d./i.v. with Mannitol (75 mg/kg/d in saline), JP1 (45 mg/kg/d) and JP1 (150 mg/kg/d) for 14 days, respectively. JP1 was dissolved in saline (100 mg/2 ml) and administered intravenously at a rate of 3 ml/min.
(§6) The JP1 was provided by Hybio Pharmaceutical Co., Ltd. (Shenzhen, China); the production of small packaging preparation (100 mg/vial in freeze-dried powder, purity > 98%; -20 °C for storage and transportation) was completed under strict GMP conditions and quality control procedures for biological preparations. No recovery period was set for this test; the experimental model was ended on 15th day. The relevant clinical indicators including symptoms, body weight, food intake, temperature, ophthalmology, electrocardiogram, blood routine examination, blood biochemistry, blood coagulation, urinalysis, immunotoxicity were determined on 7th and 13th, respectively. […]
(§7) indicators in all animals, and the pathological observation of organs was not determined. […]
(§8) relevant clinical indicators in two JP1 groups were no difference compared with those in […]
(§9) Level (NOAEL) of JP1 was 150 mg/kg.

[2] = Cynomolgus monkey toxicity test: immunotoxicity; format: in vivo
Experimental: as §1, §2, §3, §4, §5, §6, §7, §8, §9

[3] = test system: B16F10 cell; assay: B16F10 melanoma-bearing model, JP1 and DTIC alone or in combination; format: in vivo, mouse; settings: 50 mg/kg JP1 combined with 40 mg/kg DTIC
Experimental: (A-C) (A) Schematic representation of the B16F10 and MEWO cells melanoma-bearing model for JP1 treatment (n = 6 per group). JP1 and its control agents were administered by intraperitoneal injection. […] (D-G) (D) Schematic representation of the B16F10 cell melanoma passive metastasis model for JP1 treatment. JP1 and its control agents were administered by intraperitoneal injection. […] (F) The representative melanoma lung metastatic images by H&E-staining (scale bars, 1000 μm). […] (J-L) (J) Schematic representation of the B16F10 cell melanoma-bearing model (n= 6 per group). Both JP1 and DTIC alone or in combination treatments and relative control was administered by intraperitoneal injection in mice.
The chemotherapeutic agent dacarbazine (DTIC) is currently as the first line drug used to treat metastatic melanoma in clinic, and was reported to cause painful symptoms and acquired resistance, compromising patient quality of life. To determine the possibility as a combination therapy between DTIC and JP1, we completed a joint treatment of DTIC and JP1 for melanoma tumor-bearing model (Figure 2J).

[4] = JP1 45 mg/kg/d i.v., D7, monkeys 1105,1106,2107,2108, 45 mg/kg/day
[5] = JP1 45 mg/kg/d i.v., D13, monkeys 1105,1106,2107,2108, 45 mg/kg/day
[6] = JP1 150 mg/kg/d i.v., D7, monkeys 1209,1210,2211,2212
[7] = JP1 150 mg/kg/d i.v., D7, monkeys 1209,1210,2211,2212, 150 mg/kg/day
[8] = JP1 150 mg/kg/d i.v., D13, monkeys 1209,1210,2211,2212, 150 mg/kg/day

CC(=O)N[C@@H](Cc1ccccc1)C(=O)N1CCC[C@H]1C(=O)NCC(=O)N[C@@H](COP(=O)(O)O)C(=O)N[C@@H](CC(=O)O)C(=O)N[C@@H](CCCNC(=N)N)C(=O)N[C@@H](Cc1ccccc1)C(=O)NCC(=O)NCC(=O)NCC(=O)NCC(=O)N[C@@H](CCCNC(=N)N)C(=O)NCC(=O)N[C@@H](CC(=O)O)C(N)=O [JP1] (Ac-FPG[pS]DRFGGGGRGD-NH2)
BASO % [1, 4]: 0.1% and 0.0% | EO % [1, 4]: 0.4% and 0.0% and 0.9% and 0.5% | HCT [1, 4]: 34.5% and 36.0% and 39.6% and 37.9% | HGB [1, 4]: 118 g/L and 111 g/L and 119 g/L and 104 g/L | LYMPH % [1, 4]: 17.9% and 15.8% and 30.8% and 26.7% | MCH [1, 4]: 23.1 pg and 24.5 pg and 23.4 pg and 23.2 pg | MCHC [1, 4]: 311 g/L and 308 g/L and 301 g/L | MCV [1, 4]: 79.5 fL and 77.0 fL and 78.0 fL and 74.3 fL | MONO % [1, 4]: 2.6% and 2.2% and 3.8% and 2.0% | NEUT % [1, 4]: 81.6% and 79.8% and 64.5% and 70.2% | NEUT# [1, 4]: 9.22 109/L and 12.27 109/L and 11.67 109/L and 7.64 109/L | PLT [1, 4]: 476 109/L and 539 109/L and 485 109/L and 393 109/L | RBC [1, 4]: 5.10 1012/L and 4.53 1012/L and 5.08 1012/L and 4.48 1012/L | RET% [1, 4]: 0.68% and 2.83% and 1.78% and 2.67% | WBC [1, 4]: 15.04 109/L and 11.55 109/L and 18.07 109/L and 10.87 109/L | BASO % [1, 5]: 0.0% and 0.1% | EO % [1, 5]: 1.2% and 1.9% and 0.3% and 2.5% | HCT [1, 5]: 40.1% and 36.5% and 39.2% and 42.2% | HGB [1, 5]: 121 g/L and 113 g/L and 115 g/L and 127 g/L | LYMPH % [1, 5]: 39.5% and 40.7% and 28.2% and 42.7% | MCH [1, 5]: 25.3 pg and 23.1 pg and 23.9 pg and 23.3 pg | MCHC [1, 5]: 302 g/L and 310 g/L and 293 g/L and 301 g/L | MCV [1, 5]: 83.7 fL and 74.5 fL and 81.5 fL and 77.4 fL | MONO % [1, 5]: 7.1% and 3.5% and 4.4% and 4.8% | NEUT % [1, 5]: 52.2% and 53.8% and 67.0% and 49.9% | PLT [1, 5]: 449 109/L and 489 109/L and 561 109/L and 590 109/L | RBC [1, 5]: 4.79 1012/L and 4.90 1012/L and 4.81 1012/L and 5.45 1012/L | RET% [1, 5]: 3.65% and 0.95% and 3.41% and 1.99% | BASO % [1, 6]: 0.1% | BASO# [1, 6]: 0.01 109/L | EO % [1, 7]: 0.1% and 0.4% and 0.6% | HCT [1, 7]: 37.0% and 38.5% and 37.2% and 34.6% | HGB [1, 7]: 117 g/L and 112 g/L and 110 g/L and 106 g/L | LYMPH# [1, 7]: 3.39 109/L and 3.63 109/L and 4.19 109/L and 2.35 109/L | MCH [1, 7]: 24.4 pg and 23.3 pg and 23.4 pg and 21.8 pg | MCHC [1, 7]: 316 g/L and 291 g/L and 296 g/L and 306 g/L | MCV [1, 7]: 77.2 fL and 80.0 fL and 79.1 fL and 71.2 fL | MONO % [1, 7]: 3.4% and 4.0% and 2.4% | MONO# [1, 7]: 0.53 109/L and 0.65 109/L and 0.50 109/L and 0.39 109/L | NEUT % [1, 7]: 74.4% and 77.1% and 61.7% and 82.9% | NEUT# [1, 7]: 11.48 109/L and 14.75 109/L and 7.71 109/L and 13.42 109/L | PLT [1, 7]: 457 109/L and 540 109/L and 391 109/L and 474 109/L | RBC [1, 7]: 4.79 1012/L and 4.81 1012/L and 4.70 1012/L and 4.86 1012/L | RET# [1, 7]: 44.1 109/L and 70.7 109/L and 81.8 109/L and 74.4 109/L | RET% [1, 7]: 0.92% and 1.47% and 1.74% and 1.53% | WBC [1, 7]: 15.42 109/L and 19.12 109/L and 12.48 109/L and 16.18 109/L | BASO % [1, 8]: 0.1% and 0.0% | EO % [1, 8]: 1.7% and 0.3% and 0.8% and 1.5% | HCT [1, 8]: 38.8% and 38.3% and 37.7% and 36.9% | HGB [1, 8]: 109 g/L and 115 g/L and 121 g/L and 111 g/L | LYMPH % [1, 8]: 30.4% and 27.4% and 43.1% and 40.0% | LYMPH# [1, 8]: 4.07 109/L and 5.06 109/L and 2.56 109/L and 4.46 109/L | MCH [1, 8]: 23.7 pg and 21.4 pg and 24.5 pg and 23.8 pg | MCHC [1, 8]: 295 g/L and 296 g/L and 316 g/L and 294 g/L | MCV [1, 8]: 80.2 fL and 72.3 fL and 77.7 fL and 80.9 fL | MONO % [1, 8]: 6.3% and 6.4% and 4.1% and 7.8% | NEUT % [1, 8]: 65.9% and 52.0% and 50.6% and 61.5% | PLT [1, 8]: 357 109/L and 548 109/L and 451 109/L and 510 109/L | RBC [1, 8]: 4.60 1012/L and 5.37 1012/L and 4.93 1012/L and 4.66 1012/L | RET% [1, 8]: 1.63% and 2.23% and 2.58% and 1.36% | WBC [1, 8]: 9.44 109/L and 12.65 109/L and 8.41 109/L and 16.30 109/L | CD3+CD4+ [2, 4]: 14.420% and 14.760% and 20.160% and 13.220% | CD3+CD8+ [2, 4]: 27.140% and 25.500% and 32.040% and 35.620% | CD3+CD4+ [2, 5]: 13.100% and 19.100% and 14.180% and 13.220% | CD3+CD8+ [2, 5]: 41.820% and 43.140% and 47.160% and 31.220% | CD3+CD8+ [2, 7]: 35.120% and 32.940% and 27.060% and 33.660% | CD3+CD4+ [2, 8]: 24.420% and 20.280% and 28.260% and 22.580% | CD3+CD8+ [2, 8]: 40.460% and 36.280% and 38.920% and 46.260% | body weight curve [3]: stable | liver injury ([3]; compared to DTIC alone): without obvious liver injury
